# Test results: patent publication US10294202B2, “Pyrrolidinones as herbicides” (FMC Corporation, priority 2013, dated 2019)
# Legend:
# rice = test: Test B flooded paddy test; type: in vivo, Oryza sativa; conditions: 500 g ai/ha, Flood; scale of 0 to 100 where 0 is no effect and 100 is complete control
# Summary of the method: (§1)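 Paddy-water application at a 3 cm flood, young plants having two leaves. Water level maintained; greenhouse, 13–15 days; visual 0–100 control rating.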
# giant foxtail = test: Test A pre-/postemergence herbicide test; type: in vivo, Setaria faberii; conditions: for Plant response rating, Foxtail, Giant: 0 to 100 scale
# Summary of the method: (§2)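 Greenhouse pot test with pre- and postemergence application of surfactant-containing solvent formulations. Postemergence plants were 2–10 cm, one- to two-leaf stage. Response scored visually after ~10 days, 0 (no effect) to 100 (complete control).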
# kochia = test: Test A pre-/postemergence herbicide test; type: in vivo, Kochia scoparia; conditions: for Plant response rating, Kochia: 0 to 100 scale
# Summary of the method: as §2
# barnyardgrass [1] = test: Test B flooded paddy test; type: in vivo, Echinochloa crus-galli; conditions: 500 g ai/ha, Flood; scale of 0 to 100 where 0 is no effect and 100 is complete control
# Summary of the method: as §1
# pigweed = test: Test A pre-/postemergence herbicide test; type: in vivo, Amaranthus retroflexus; conditions: for Plant response rating, Pigweed: 0 to 100 scale
# Summary of the method: as §2
# ducksalad = test: Test B flooded paddy test; type: in vivo, Heteranthera limosa; conditions: 500 g ai/ha, Flood; scale of 0 to 100 where 0 is no effect and 100 is complete control
# Summary of the method: as §1
# sedge, umbrella = test: Test B flooded paddy test; type: in vivo, Cyperus difformis; conditions: 500 g ai/ha, Flood; scale of 0 to 100 where 0 is no effect and 100 is complete control
# Summary of the method: as §1
# wheat = test: Test A pre-/postemergence herbicide test; type: in vivo, Triticum aestivum; conditions: Postemergence; for Plant response rating, Wheat: 125 g ai/ha, 0 to 100 scale; for Wheat plant response rating (0 to 100 scale, 0 is no effect, 100 is complete control): 500 g ai/ha
# Summary of the method: as §2
# ragweed = test: Test A pre-/postemergence herbicide test; type: in vivo, Ambrosia elatior; conditions: for Plant response rating, Ragweed: 0 to 100 scale
# Summary of the method: as §2
# ryegrass, Italian = test: Test A pre-/postemergence herbicide test; type: in vivo, Lolium multiflorum; conditions: for Plant response rating, Ryegrass, Italian: 0 to 100 scale
# Summary of the method: as §2
# galium = test: Test A postemergence herbicide test; type: in vivo, Galium aparine; conditions: for Plant response rating, Galium: 125 g ai/ha, 0 to 100 scale; for Galium plant response rating (0 to 100 scale, 0 is no effect, 100 is complete control): 500 g ai/ha
# Summary of the method: (§3)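 Blackgrass and galium grown in pots of loam soil–sand blend, treated postemergence at 2–10 cm height, one- to two-leaf stage. Plants kept in greenhouse ~10 days, then visually rated for injury against untreated controls on a 0–100 scale (0 no effect, 100 complete control).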
# corn = test: Test A pre-/postemergence herbicide test; type: in vivo, Zea mays; conditions: Postemergence; for Plant response rating, Corn: 125 g ai/ha, 0 to 100 scale; for Corn plant response rating (0 to 100 scale, 0 is no effect, 100 is complete control): 500 g ai/ha
# Summary of the method: as §2
# blackgrass = test: Test A postemergence herbicide test; type: in vivo, Alopecurus myosuroides; conditions: for Plant response rating, Blackgrass: 125 g ai/ha, 0 to 100 scale; for Blackgrass plant response rating (0 to 100 scale, 0 is no effect, 100 is complete control): 500 g ai/ha
# Summary of the method: as §3
# barnyardgrass [2] = test: Test A pre-/postemergence herbicide test; type: in vivo, Echinochloa crus-galli
# Summary of the method: as §2
# [3] = 125 g ai/ha, visual rating, 0 no effect, 100 complete control, approximately 10 days, preemergence
# [4] = Postemergence, 125 g ai/ha, 0 no effect, 100 complete control
# [5] = 0 no effect, 100 complete control
# [6] = 125 g ai/ha, visual rating, 0 to 100 scale, 0 no effect, 100 complete control, approximately 10 days, preemergence
# [7] = Postemergence, 125 g ai/ha, 0 to 100 scale, 0 no effect, 100 complete control
# [8] = preemergence, 500 g ai/ha, 0 to 100 scale (0 no effect, 100 complete control)
# [9] = Postemergence, 125 g ai/ha, 0 is no effect, 100 is complete control
# [10] = preemergence, 500 g ai/ha, 0 is no effect and 100 is complete control
# [11] = 0 is no effect, 100 is complete control
smiles,measurement,setting,value
Cc1ccc(C2CNC(=O)C2C(=O)Nc2ccc(F)c(F)c2F)cc1F (racemic) [Compound 147],"Plant response rating, Rice",rice,0
same,"Plant response rating, Foxtail, Giant",giant foxtail; [3],80
same,"Plant response rating, Foxtail, Giant",giant foxtail; [4],40
same,"Foxtail, Giant plant response rating (0 to 100 scale, 0 is no effect, 100 is complete control)","giant foxtail; Postemergence, 500 g ai/ha",70
same,"Plant response rating, Foxtail, Giant","giant foxtail; preemergence, 500 g ai/ha",90
same,"Plant response rating, Kochia",kochia; [3],30
same,"Plant response rating, Kochia",kochia; [4],40
same,"Kochia plant response rating (0 to 100 scale, 0 is no effect, 100 is complete control)","kochia; Postemergence, 500 g ai/ha",60
same,"Plant response rating, Kochia","kochia; preemergence, 500 g ai/ha",80
same,"Plant response rating, Barnyardgrass",barnyardgrass [1],70
same,"Plant response rating, Pigweed",pigweed; [3],0
same,"Plant response rating, Pigweed",pigweed; [4],0
same,"Pigweed plant response rating (0 to 100 scale, 0 is no effect, 100 is complete control)","pigweed; Postemergence, 500 g ai/ha",10
same,"Plant response rating, Pigweed","pigweed; preemergence, 500 g ai/ha",0
same,"Plant response rating, Ducksalad",ducksalad,100
same,"Plant response rating, Sedge, Umbrella","sedge, umbrella",0
same,"Plant response rating, Wheat",wheat; [5],0
same,"Wheat plant response rating (0 to 100 scale, 0 is no effect, 100 is complete control)",wheat,40
same,"Plant response rating, Ragweed",ragweed; [3],0
same,"Plant response rating, Ragweed",ragweed; [4],0
same,"Ragweed plant response rating (0 to 100 scale, 0 is no effect, 100 is complete control)","ragweed; Postemergence, 500 g ai/ha",50
same,"Plant response rating, Ragweed","ragweed; preemergence, 500 g ai/ha",50
same,"Plant response rating, Ryegrass, Italian","ryegrass, Italian; [3]",0
same,"Plant response rating, Ryegrass, Italian","ryegrass, Italian; [4]",20
same,"Ryegrass, Italian plant response rating (0 to 100 scale, 0 is no effect, 100 is complete control)","ryegrass, Italian; Postemergence, 500 g ai/ha",50
same,"Plant response rating, Ryegrass, Italian","ryegrass, Italian; preemergence, 500 g ai/ha",40
same,"Plant response rating, Galium",galium; [5],50
same,"Galium plant response rating (0 to 100 scale, 0 is no effect, 100 is complete control)",galium,60
same,"Plant response rating, Corn",corn; [5],0
same,"Corn plant response rating (0 to 100 scale, 0 is no effect, 100 is complete control)",corn,50
same,"Plant response rating, Blackgrass",blackgrass; [5],40
same,"Blackgrass plant response rating (0 to 100 scale, 0 is no effect, 100 is complete control)",blackgrass,60
same,"Plant response rating, Barnyardgrass",barnyardgrass [2]; [6],90
same,"Plant response rating, Barnyardgrass",barnyardgrass [2]; [7],90
same,"Barnyardgrass plant response rating (0 to 100 scale, 0 is no effect, 100 is complete control)","barnyardgrass [2]; Postemergence, 500 g ai/ha",90
same,"Plant response rating, Barnyardgrass",barnyardgrass [2]; [8],90
Cc1ccc(C2CNC(=O)C2C(=O)Nc2ccc(F)cc2F)cc1 (racemic) [Compound 150],"Plant response rating, Rice",rice,0
same,"Plant response rating, Foxtail, Giant",giant foxtail; [3],70
same,"Plant response rating, Foxtail, Giant",giant foxtail; [4],30
same,"Foxtail, Giant plant response rating (0 to 100 scale, 0 is no effect, 100 is complete control)","giant foxtail; Postemergence, 500 g ai/ha",70
same,"Plant response rating, Foxtail, Giant","giant foxtail; preemergence, 500 g ai/ha",90
same,"Plant response rating, Kochia",kochia; [3],60
same,"Plant response rating, Kochia",kochia; [4],30
same,"Kochia plant response rating (0 to 100 scale, 0 is no effect, 100 is complete control)","kochia; Postemergence, 500 g ai/ha",60
same,"Plant response rating, Kochia","kochia; preemergence, 500 g ai/ha",90
same,"Plant response rating, Barnyardgrass",barnyardgrass [1],80
same,"Plant response rating, Pigweed",pigweed; [3],0
same,"Plant response rating, Pigweed",pigweed; [4],0
same,"Pigweed plant response rating (0 to 100 scale, 0 is no effect, 100 is complete control)","pigweed; Postemergence, 500 g ai/ha",20
same,"Plant response rating, Pigweed","pigweed; preemergence, 500 g ai/ha",0
same,"Plant response rating, Ducksalad",ducksalad,100
same,"Plant response rating, Sedge, Umbrella","sedge, umbrella",0
same,"Plant response rating, Wheat",wheat; [5],0
same,"Wheat plant response rating (0 to 100 scale, 0 is no effect, 100 is complete control)",wheat,0
same,"Plant response rating, Ragweed",ragweed; [3],0
same,"Plant response rating, Ragweed",ragweed; [4],0
same,"Ragweed plant response rating (0 to 100 scale, 0 is no effect, 100 is complete control)","ragweed; Postemergence, 500 g ai/ha",20
same,"Plant response rating, Ragweed","ragweed; preemergence, 500 g ai/ha",50
same,"Plant response rating, Ryegrass, Italian","ryegrass, Italian; [3]",0
same,"Plant response rating, Ryegrass, Italian","ryegrass, Italian; [4]",0
same,"Ryegrass, Italian plant response rating (0 to 100 scale, 0 is no effect, 100 is complete control)","ryegrass, Italian; Postemergence, 500 g ai/ha",0
same,"Plant response rating, Ryegrass, Italian","ryegrass, Italian; preemergence, 500 g ai/ha",50
same,"Plant response rating, Galium",galium; [5],50
same,"Galium plant response rating (0 to 100 scale, 0 is no effect, 100 is complete control)",galium,60
same,"Plant response rating, Corn",corn; [5],0
same,"Corn plant response rating (0 to 100 scale, 0 is no effect, 100 is complete control)",corn,30
same,"Plant response rating, Blackgrass",blackgrass; [5],0
same,"Blackgrass plant response rating (0 to 100 scale, 0 is no effect, 100 is complete control)",blackgrass,10
same,"Plant response rating, Barnyardgrass",barnyardgrass [2]; [6],80
same,"Plant response rating, Barnyardgrass",barnyardgrass [2]; [7],80
same,"Barnyardgrass plant response rating (0 to 100 scale, 0 is no effect, 100 is complete control)","barnyardgrass [2]; Postemergence, 500 g ai/ha",80
same,"Plant response rating, Barnyardgrass",barnyardgrass [2]; [8],90
CS(=O)(=O)c1ccccc1NC(=O)C1C(=O)NCC1c1cccc(C(F)(F)F)c1 (racemic) [Compound 160],"Plant response rating, Rice",rice,10
same,"Plant response rating, Foxtail, Giant",giant foxtail; [3],80
same,"Plant response rating, Foxtail, Giant",giant foxtail; [9],80
same,"Foxtail, Giant plant response rating (0 to 100 scale, 0 is no effect, 100 is complete control)","giant foxtail; Postemergence, 500 g ai/ha",90
same,"Plant response rating, Foxtail, Giant","giant foxtail; preemergence, 500 g ai/ha",90
same,"Plant response rating, Kochia",kochia; [3],80
same,"Plant response rating, Kochia",kochia; [9],70
same,"Kochia plant response rating (0 to 100 scale, 0 is no effect, 100 is complete control)","kochia; Postemergence, 500 g ai/ha",80
same,"Plant response rating, Kochia",kochia; [10],90
same,"Plant response rating, Barnyardgrass",barnyardgrass [1],60
same,"Plant response rating, Pigweed",pigweed; [3],70
same,"Plant response rating, Pigweed",pigweed; [9],60
same,"Pigweed plant response rating (0 to 100 scale, 0 is no effect, 100 is complete control)","pigweed; Postemergence, 500 g ai/ha",80
same,"Plant response rating, Pigweed",pigweed; [10],90
same,"Plant response rating, Ducksalad",ducksalad,100
same,"Plant response rating, Sedge, Umbrella","sedge, umbrella",0
same,"Plant response rating, Wheat",wheat; [11],0
same,"Wheat plant response rating (0 to 100 scale, 0 is no effect, 100 is complete control)",wheat,50
same,"Plant response rating, Ragweed",ragweed; [3],70
same,"Plant response rating, Ragweed",ragweed; [9],50
same,"Ragweed plant response rating (0 to 100 scale, 0 is no effect, 100 is complete control)","ragweed; Postemergence, 500 g ai/ha",60
same,"Plant response rating, Ragweed",ragweed; [10],80
same,"Plant response rating, Ryegrass, Italian","ryegrass, Italian; [3]",60
same,"Plant response rating, Ryegrass, Italian","ryegrass, Italian; [9]",0
same,"Ryegrass, Italian plant response rating (0 to 100 scale, 0 is no effect, 100 is complete control)","ryegrass, Italian; Postemergence, 500 g ai/ha",10
same,"Plant response rating, Ryegrass, Italian","ryegrass, Italian; [10]",70
same,"Plant response rating, Galium",galium; [11],60
same,"Galium plant response rating (0 to 100 scale, 0 is no effect, 100 is complete control)",galium,70
same,"Plant response rating, Corn",corn; [11],40
same,"Corn plant response rating (0 to 100 scale, 0 is no effect, 100 is complete control)",corn,70
same,"Plant response rating, Blackgrass",blackgrass; [11],60
same,"Blackgrass plant response rating (0 to 100 scale, 0 is no effect, 100 is complete control)",blackgrass,70
same,"Plant response rating, Barnyardgrass",barnyardgrass [2]; [6],80
same,"Plant response rating, Barnyardgrass","barnyardgrass [2]; Postemergence, 125 g ai/ha, 0 to 100 scale, 0 is no effect, 100 is complete control",70
same,"Barnyardgrass plant response rating (0 to 100 scale, 0 is no effect, 100 is complete control)","barnyardgrass [2]; Postemergence, 500 g ai/ha",80
same,"Plant response rating, Barnyardgrass",barnyardgrass [2]; [8],90
